Reference: patent publication US8741836B2, “Polypeptides” (Novo Nordisk A/S, priority 2011, dated 2014)
Starred links: 1 amine or outer side, 2 acyl side, 3 side chain; linkers in the order of their positions; H or OH if unused. Positions of bridges follow the written chain, without caps; N, C: chain ends. Residues, ends and D or L forms follow the SMILES beside them. *: point of attachment. C20 diacid = O=C(O)CCCCCCCCCCCCCCCCCCC(=O)*; γGlu = O=C(O)[C@H](CCC(=O)[*:2])N[*:1]

Tested on: ad libitum fed rat
Test: Assay (I) efficacy testing on appetite (food intake) using an ad libitum fed rat model
Type: in vivo, Sprague Dawley (SD) rats
Conditions: 3 nmol/kg
Text: In the following examples reference is made to the following Assays: • Assay (I)—Experimental protocol for efficacy testing on appetite using an ad libitum fed rat model • ASSAY (II)a—Functional assay—Human calcitonin and amylin receptor assay • ASSAY (II)b—Functional assay—Rat calcitonin and rat amylin receptor assays • ASSAY (III)—ThT fibrillation assays for the assessment of physical stability of protein formulations • ASSAY (IV)—Determination of solubility • ASSAY (V)—Determination of binding to the human amylin receptor • ASSAY (VI)—Determination of the binding to the rat amylin receptor • ASSAY (VII)—Determination of binding to the human calcitonin receptor • ASSAY (VIII)—Determination of binding to the rat calcitonin receptor • ASSAY (IX)—pK—Determination of T½ in mini-pig • ASSAY (X)—pK—Determination of T½ in rat Assay (I)—Experimental protocol for Efficacy Testing on Appetite Using an Ad Libitum Fed Rat Model
Sprague Dawley (SD) rats from Taconic Europe, Denmark are used for the experiments. The rats have a body weight 200-250 g at the start of experiment. The rats arrive at least 10-14 days before start of experiment to allow acclimatization to experimental settings. During this period the animals are handled at least 2 times. After arrival rats are housed individually for one week in a reversed light/dark phase (meaning that lights are off during daytime and on during nighttime) […]. Since rats are normally active and eat their major part of their daily food intake during the dark period, rats are dosed in the morning right before lights are turned off. This set-up results in the lowest data variation and highest test sensitivity. The experiment is conducted in the rats' home cages and rats have free access to food and water throughout the acclimatization period and the experiment period. Each dose of derivative is tested in a group of 5-8 rats. A vehicle group of 6-8 rats is included in each set of testing. Rats are dosed once according to body weight with a 0.01-3 mg/kg solution administered intraperitoneally (ip), orally (po) or subcutaneously (sc). The time of dosing is recorded for each group. After dosing, the rats are returned to their home cages, where they then have access to food and water. The food consumption is recorded individually continuously by on-line registration or manually every hour for 7 hours, and then after 24 h and sometimes 48 h. At the end of the experimental session, the animals are euthanised.
The individual data are recorded in Microsoft excel sheets. Outliers are excluded after applying the Grubbs statistical evaluation test for outliers, and the result is presented graphically using the GraphPad Prism program.

Q: What does the source list for `CC[C@H](C)[C@H](NC(=O)[C@@H]1CCCN1C(=O)CNC(=O)[C@H](Cc1ccccc1)NC(=O)[C@H](CC(N)=O)NC(=O)[C@H](CC(N)=O)NC(=O)[C@H](CO)NC(=O)[C@H](CO)NC(=O)[C@H](Cc1c[nH]cn1)NC(=O)[C@H](Cc1c[nH]cn1)NC(=O)[C@H](CC(C)C)NC(=O)[C@H](Cc1ccccc1)NC(=O)[C@H](CCC(=O)O)NC(=O)[C@H](C)NC(=O)[C@H](CC(C)C)NC(=O)[C@H](CCCNC(=N)N)NC(=O)[C@H](CCC(N)=O)NC(=O)[C@@H](NC(=O)[C@H](C)NC(=O)[C@@H]1CSSC[C@H](NC(=O)[C@H](Cc2c[nH]cn2)NC(=O)[C@H](Cc2c[nH]cn2)NC(=O)[C@H](Cc2c[nH]cn2)NC(=O)CC[C@H](NC(=O)CCCCCCCCCCCCCCCCCCC(=O)O)C(=O)O)C(=O)N[C@@H](CCCNC(=N)N)C(=O)N[C@@H]([C@@H](C)O)C(=O)N[C@@H](C)C(=O)N[C@@H]([C@@H](C)O)C(=O)N1)[C@@H](C)O)C(=O)N[C@@H](CC(C)C)C(=O)N1CCC[C@H]1C(=O)N1CCC[C@H]1C(=O)N[C@H](C(=O)N[C@@H](CC(N)=O)C(=O)N[C@H](C(=O)NCC(=O)N[C@@H](CO)C(=O)N[C@@H](CC(N)=O)C(=O)N[C@H](C(=O)N[C@@H](Cc1ccc(O)cc1)C(N)=O)[C@@H](C)O)C(C)C)[C@@H](C)O` [Example 22, N-alpha-[(S)-4-Carboxy-4-(19-carboxynonadecanoylamino)butyryl]-His-His-[His1,Arg3,Glu14,His17]-pramlintide] ({C20 diacid-γGlu}-HHHCRTATCATQRLAEFLHHSSNNFGPILPPTNVGSNTY-NH2; disulfide 4-9 (inferred))?
A: Food intake reduction 0-24 h 3 nmol/kg (%): 26%; Food intake reduction 24-48 h 3 nmol/kg (%): 5%

Q: `CC[C@H](C)[C@H](NC(=O)[C@@H]1CCCN1C(=O)CNC(=O)[C@H](Cc1ccccc1)NC(=O)[C@H](CC(N)=O)NC(=O)[C@H](CC(N)=O)NC(=O)[C@H](CO)NC(=O)[C@H](CO)NC(=O)[C@H](Cc1c[nH]cn1)NC(=O)[C@H](Cc1c[nH]cn1)NC(=O)[C@H](CC(C)C)NC(=O)[C@H](Cc1ccccc1)NC(=O)[C@H](CCC(=O)O)NC(=O)[C@H](C)NC(=O)[C@H](CC(C)C)NC(=O)[C@H](CCCNC(=N)N)NC(=O)[C@H](CCC(N)=O)NC(=O)[C@@H](NC(=O)[C@H](C)NC(=O)[C@@H]1CSSC[C@H](NC(=O)[C@H](CCCCN)NC(=O)[C@H](CCC(=O)O)NC(=O)CC[C@H](NC(=O)CCCCCCCCCCCCCCCCCCC(=O)O)C(=O)O)C(=O)N[C@@H](CC(N)=O)C(=O)N[C@@H]([C@@H](C)O)C(=O)N[C@@H](C)C(=O)N[C@@H]([C@@H](C)O)C(=O)N1)[C@@H](C)O)C(=O)N[C@@H](CC(C)C)C(=O)N1CCC[C@H]1C(=O)N1CCC[C@H]1C(=O)N[C@H](C(=O)N[C@@H](CC(N)=O)C(=O)N[C@H](C(=O)NCC(=O)N[C@@H](CO)C(=O)N[C@@H](CC(N)=O)C(=O)N[C@H](C(=O)N[C@@H](Cc1ccc(O)cc1)C(N)=O)[C@@H](C)O)C(C)C)[C@@H](C)O` [Example 26, N-alpha-[(S)-4-Carboxy-4-(19-carboxynonadecanoylamino)butyryl]-Glu-[Glu14,His17]-pramlintide] ({C20 diacid-γGlu}-EKCNTATCATQRLAEFLHHSSNNFGPILPPTNVGSNTY-NH2; disulfide 3-8 (inferred)) was tested. Which “Food intake reduction 0-24 h 3 nmol/kg (%)” value did it give?
A: Its value is 46%.

Q: What about the “Food intake reduction 24-48 h 3 nmol/kg (%)” value of the same compound?
A: Its value is 39%.

Q: For `CC[C@H](C)[C@H](NC(=O)[C@@H]1CCCN1C(=O)CNC(=O)[C@H](Cc1ccccc1)NC(=O)[C@H](CC(N)=O)NC(=O)[C@H](CC(N)=O)NC(=O)[C@H](CO)NC(=O)[C@H](CO)NC(=O)[C@H](Cc1c[nH]cn1)NC(=O)[C@H](Cc1c[nH]cn1)NC(=O)[C@H](CC(C)C)NC(=O)[C@H](Cc1ccccc1)NC(=O)[C@H](CCC(=O)O)NC(=O)[C@H](C)NC(=O)[C@H](CC(C)C)NC(=O)[C@H](CCCNC(=N)N)NC(=O)[C@H](CCC(N)=O)NC(=O)[C@@H](NC(=O)[C@H](C)NC(=O)[C@@H]1CSSC[C@H](NC(=O)[C@H](CCCCN)NC(=O)CC[C@H](NC(=O)CCCCCCCCCCCCCCCCCCC(=O)O)C(=O)O)C(=O)N[C@@H](CC(N)=O)C(=O)N[C@@H]([C@@H](C)O)C(=O)N[C@@H](C)C(=O)N[C@@H]([C@@H](C)O)C(=O)N1)[C@@H](C)O)C(=O)N[C@@H](CC(C)C)C(=O)N1CCC[C@H]1C(=O)N1CCC[C@H]1C(=O)N[C@H](C(=O)N[C@@H](CC(N)=O)C(=O)N[C@H](C(=O)NCC(=O)N[C@@H](CO)C(=O)N[C@@H](CC(N)=O)C(=O)N[C@H](C(=O)N[C@@H](Cc1ccc(O)cc1)C(N)=O)[C@@H](C)O)C(C)C)[C@@H](C)O` [Example 27, N-alpha-[(S)-4-Carboxy-4-(19-carboxynonadecanoylamino)butyryl]-[Glu14,His17]-pramlintide] ({C20 diacid-γGlu}-KCNTATCATQRLAEFLHHSSNNFGPILPPTNVGSNTY-NH2; disulfide 2-7 (inferred)), which “Food intake reduction 0-24 h 3 nmol/kg (%)” value is on record?
A: Its value is 56%.

Q: And the “Food intake reduction 24-48 h 3 nmol/kg (%)” value?
A: The value was 53%.

Q: With `CC[C@H](C)[C@H](NC(=O)[C@@H]1CCCN1C(=O)CNC(=O)[C@H](Cc1ccccc1)NC(=O)[C@H](CC(N)=O)NC(=O)[C@H](CC(N)=O)NC(=O)[C@H](CO)NC(=O)[C@H](CO)NC(=O)[C@H](Cc1c[nH]cn1)NC(=O)[C@H](Cc1c[nH]cn1)NC(=O)[C@H](CC(C)C)NC(=O)[C@H](Cc1ccccc1)NC(=O)[C@H](CCC(=O)O)NC(=O)[C@H](C)NC(=O)[C@H](CC(C)C)NC(=O)[C@H](CCCNC(=N)N)NC(=O)[C@H](CCC(N)=O)NC(=O)[C@@H](NC(=O)[C@H](C)NC(=O)[C@@H]1CSSC[C@H](NC(=O)CC[C@H](NC(=O)CCCCCCCCCCCCCCCCCCC(=O)O)C(=O)O)C(=O)N[C@@H](CC(N)=O)C(=O)N[C@@H]([C@@H](C)O)C(=O)N[C@@H](C)C(=O)N[C@@H]([C@@H](C)O)C(=O)N1)[C@@H](C)O)C(=O)N[C@@H](CC(C)C)C(=O)N1CCC[C@H]1C(=O)N1CCC[C@H]1C(=O)N[C@H](C(=O)N[C@@H](CC(N)=O)C(=O)N[C@H](C(=O)NCC(=O)N[C@@H](CO)C(=O)N[C@@H](CC(N)=O)C(=O)N[C@H](C(=O)N[C@@H](Cc1ccc(O)cc1)C(N)=O)[C@@H](C)O)C(C)C)[C@@H](C)O` [Example 28, N-alpha-[(S)-4-Carboxy-4-(19-carboxynonadecanoylamino)butyryl]-[des1,Glu14,His17]-pramlintide] ({C20 diacid-γGlu}-CNTATCATQRLAEFLHHSSNNFGPILPPTNVGSNTY-NH2; disulfide 1-6) as the compound, how does the “Food intake reduction 0-24 h 3 nmol/kg (%)” value read?
A: Its value is 39%.

Q: What about the “Food intake reduction 24-48 h 3 nmol/kg (%)” value of the same compound?
A: The value was 36%.

Q: What does the source list for `CC[C@H](C)[C@H](NC(=O)[C@@H]1CCCN1C(=O)CNC(=O)[C@H](Cc1ccccc1)NC(=O)[C@H](CC(N)=O)NC(=O)[C@H](CC(N)=O)NC(=O)[C@H](CO)NC(=O)[C@H](CO)NC(=O)[C@H](Cc1c[nH]cn1)NC(=O)[C@H](Cc1c[nH]cn1)NC(=O)[C@H](CC(C)C)NC(=O)[C@H](Cc1ccccc1)NC(=O)[C@H](CCC(=O)O)NC(=O)[C@H](C)NC(=O)[C@H](CC(C)C)NC(=O)[C@H](CCCNC(=N)N)NC(=O)[C@H](CCC(N)=O)NC(=O)[C@@H](NC(=O)[C@H](C)NC(=O)[C@@H]1CSSC[C@H](NC(=O)[C@H](CCC(=O)O)NC(=O)CC[C@H](NC(=O)CCCCCCCCCCCCCCCCCCC(=O)O)C(=O)O)C(=O)N[C@@H](CC(N)=O)C(=O)N[C@@H]([C@@H](C)O)C(=O)N[C@@H](C)C(=O)N[C@@H]([C@@H](C)O)C(=O)N1)[C@@H](C)O)C(=O)N[C@@H](CC(C)C)C(=O)N1CCC[C@H]1C(=O)N1CCC[C@H]1C(=O)N[C@H](C(=O)N[C@@H](CC(N)=O)C(=O)N[C@H](C(=O)NCC(=O)N[C@@H](CO)C(=O)N[C@@H](CC(N)=O)C(=O)N[C@H](C(=O)N[C@@H](Cc1ccc(O)cc1)C(N)=O)[C@@H](C)O)C(C)C)[C@@H](C)O` [Example 29, N-alpha-[(S)-4-Carboxy-4-(19-carboxynonadecanoylamino)butyryl]-[Glu1,Glu14,His17]-pramlintide] ({C20 diacid-γGlu}-ECNTATCATQRLAEFLHHSSNNFGPILPPTNVGSNTY-NH2; disulfide 2-7 (inferred); C-terminus assumed)?
A: Food intake reduction 0-24 h 3 nmol/kg (%): 15%; Food intake reduction 24-48 h 3 nmol/kg (%): 5%
